Assay results from PubChem BioAssay AID493003 (Sanford-Burnham Center for Chemical Genomics, 2010).
Activity calls are given as the source filed them. How the calls were made is not given here.

Tested on: S. cerevisiae tim10-1 mutant growth, luminescence
Test: tim10-1 yeast growth inhibition potency – luminescence, S. cerevisiae, uHTS hits, dose response (AID 493003);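 further: yeast growth measured after about 22 hours at 25 °C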

| Compound | IC50 |
| --- | --- |
| N#Cc1c(N)nc(SCC(=O)C23CC4CC(CC(C4)C2)C3)c(C#N)c1-c1ccc(Cl)cc1 | 41.6 µM |
| N/C(=N\OC(=O)CC(c1ccccc1)c1ccccc1)c1cccnc1 | 41.8 µM |
| COc1cc(C(=O)O/N=C(\N)Cc2ccc([N+](=O)[O-])cc2)cc(OC)c1OC | 22.3 µM |
| COc1ccccc1C(=O)Nc1ccc(S(=O)(=O)N2CCCCC2)cc1 | 24.9 µM |
| Fc1ccccc1CNc1ccc(Cl)c(Cl)c1 | 26.9 µM |
| Cc1nn(Cc2ccc(Cl)cc2)c(C)c1NC(=O)c1noc2c1CCCCC2 | 23.5 µM |
| O=C(Cc1ccc(Cl)c(Cl)c1)Nc1ccc(SC(F)F)cc1 | 46.7 µM |
| CCCOc1ccc2c(c1)C(=NN=C(N)N)c1cc(OCCC)ccc1-2 | 19.8 µM |
| CCOC(=O)/C=C/C(=O)OCC(=O)Nc1ccc([N+](=O)[O-])cc1 | 8.19 µM |
| COc1ccc(-c2csc(CCn3nc(C)cc3C)n2)cc1 | 30.1 µM |
| Cc1csc(NC(=O)c2nc(-c3ccccc3)n(-c3ccccc3)n2)n1 | 31.7 µM |
| CCSc1nnc(NC(=O)c2nc(-c3ccccc3)n(-c3ccccc3)n2)s1 | 25.9 µM |
| CC(C)CN(CC(C)C)C(=S)Nc1ccc(Cl)cc1 | 15.6 µM |
| CCOC(=O)n1c(=O)n(Cc2ccccc2Cl)c2ccccc21 | 27.6 µM |
| CCCc1cc(-c2nc(-c3ccc(C)cc3)cs2)ccn1 | 49.7 µM |
| COc1ccccc1C(CCNCc1ccccc1)c1ccc(OC(C)C)cc1 (centres undefined) | 19.9 µM |
| O=C1CC(SCc2nc3ccccc3[nH]2)C(=O)N1c1ccc(F)c(Cl)c1 (centres undefined) | 32.1 µM |
| Cc1ccc(C(=O)NC(=S)Nc2ccccc2C)cc1 | 44.5 µM |
| Cc1nn2c(c1-c1ccc(Cl)cc1)N=C(c1ccco1)CC2c1ccccc1 (centres undefined) | 23.2 µM |
| N/C(=N\OC(=O)CCCOc1ccc(Cl)cc1Cl)c1ccccn1 | 34 µM |
| CSc1nc(N)nc(-c2cccs2)c1C#N | 32.5 µM |

| Compound | IC50 |
| --- | --- |
| O=C(/C=C/c1c[nH]c2ccccc12)c1ccccc1 | 78.2 µM |
| OC(COc1ccccc1)Cn1c2ccccc2c2ccccc21 (centres undefined) | 29.4 µM |
| COc1ccc(Cn2c(-c3ccc(Br)cc3)c[n+]3ccccc23)cc1 | 37.8 µM |
| COc1ccc(/C=C/C(=O)c2ccccc2)cc1Cn1nnc2ccccc21 | 6.4 µM |
| Cc1ccsc1C1Nc2ccccc2-c2nc3ccccc3n21 (centres undefined) | 28.5 µM |
| COc1ccc(/C=C2\CCc3ccccc3C2=O)cc1Cn1cccn1 | 25.6 µM |
| CCN1C(=O)/C(=C/c2c(C)nn(C)c2C)SC1=S | 24.4 µM |
| COC(=O)c1ccc(NC(=O)CN2CCN(S(=O)(=O)c3ccc(Br)cc3)CC2)cc1 | 61.5 µM |
| Cc1ccc(NC2=C/C(=N\S(=O)(=O)c3cccs3)c3ccccc3C2=O)c(C)c1 | 3.94 µM |
| O=C(CSCC(=O)OCn1nnc2ccccc2c1=O)Nc1ccc(Cl)cc1 | 20.2 µM |
| COc1ccc(-c2oc3ncnc(NCCCN(C)C)c3c2-c2ccc(OC)cc2)cc1 | 65.5 µM |
| CC(C)NC(=S)N/N=C1\CCCCc2ccccc21 | 13.9 µM |
| O=c1cc(-c2ccc(C3CCCCC3)cc2)[nH][nH]1 | 29.5 µM |
| Cc1sc(NC(=O)c2ccco2)c(C(c2cccnc2)N2CCCC2)c1C (centres undefined) | 17.2 µM |
| COc1cc(/C=C/c2ccc3cccc(O)c3n2)c(Br)cc1O | 15.4 µM |
| O=C(C1CCC1)N1CCc2cc(S(=O)(=O)N3CCN(c4ccccn4)CC3)ccc21 | 24.3 µM |
| CCOC(=O)c1sc2ncnc(NCc3ccco3)c2c1C | 30.5 µM |
| N#C/C(=N/Nc1ccc(OC(F)(F)F)cc1)C(N)=S | 5.24 µM |
| FC(F)C(F)(F)C(F)(F)C(F)(F)c1cc(-c2ccccc2)n[nH]1 | 15.2 µM |
| Cc1ccc(-c2csc3ncnc(Nc4ccc(N5CCOCC5)cc4)c23)cc1 | 53.4 µM |
| O=C(c1ccc2ncsc2c1)N1CCN(c2cccc(C(F)(F)F)c2)CC1 | 38.4 µM |

| Compound | IC50 |
| --- | --- |
| COc1ccccc1C/C(N)=N/OC(=O)c1ccco1 | 37.3 µM |
| N#CC(C#N)=c1ccc2c(c1)NC1(CCCCC1)N=2 | 30.5 µM |
| C=CCc1ccc(O)c(-c2cc(CC=C)ccc2O)c1 | 68.3 µM |
| C=CCN1C(=O)C(O)(CC(=O)c2ccc(-n3cccc3)cc2)c2ccccc21 (centres undefined) | 24.1 µM |
| CC[C@@H]1CC=C[C@H]2[C@H]1C(=O)N(Cc1ccccc1)[C@H]2c1ccoc1 | 7.61 µM |
| S=C(Nc1ccc(Cl)cc1)c1nc2ccccc2[nH]1 | 23.7 µM |
| COc1ccccc1C/C(N)=N/OC(=O)COc1ccccc1C | 38 µM |
| O=C(Cc1ccccc1)N/N=C/c1ccc2cccc(O)c2n1 | > 100 µM (inactive) |
| CC(C)C(c1nnnn1C1CCCC1)N1CCCc2ccccc21 (centres undefined) | 14.2 µM |
| O=C1CC(Sc2nnnn2-c2ccccc2)C(=O)N1c1cccc(Cl)c1 (centres undefined) | 9.03 µM |
| O=C(Oc1ccc(C(=S)N2CCOCC2)cc1)c1ccccc1[N+](=O)[O-] | 25.4 µM |
| Cc1ccc(NC(=O)CN2CCC3(O)CCCCC3C2c2ccc3c(c2)OCO3)c(C)c1 (centres undefined) | 60.9 µM |
| CCN(CC)c1ccc(NC(=O)CCCCCN2C(=O)c3ccccc3C2=O)cc1 | 14.3 µM |
| CCC(=O)Oc1ccc(-c2nc(-c3cccnc3)no2)cc1 | 43.4 µM |
| NC(=NCCCCCCN=C(N)/N=C(\N)Nc1ccc(Cl)cc1)/N=C(\N)Nc1ccc(Cl)cc1 | 12.1 µM |
| CC1CCN(c2ccccc2NC(=S)NC(=O)C(C)(C)C)CC1 | 75.8 µM |
| CN(/N=C/c1ccc([N+](=O)[O-])o1)c1ccccc1 | 32.7 µM |
| COc1ccc(NCc2nnc(SCc3ccc(Cl)cc3)n2-c2ccccc2)cc1 | 17.4 µM |
| COc1ccc2oc(=O)c(-c3csc(Nc4cccc(O)c4)n3)cc2c1 | 21.9 µM |
| Cc1c(C)n(Cc2ccccc2)c2ccc(C(=O)OCCN(C)C)cc12 | 32.1 µM |
| Cn1nc(-c2ccccc2)cc1NC(=O)Nc1ccc(C(C)(C)C)cc1 | 20.3 µM |

| Compound | IC50 |
| --- | --- |
| Cc1[nH]c(-c2ccc(F)cc2)cc1C(=O)N1CCN(c2ccccc2F)CC1 | 35.5 µM |
| OCCN1CCN(CCCN2c3ccccc3Sc3ccc(C(F)(F)F)cc32)CC1 | 31.3 µM |
| CCOC(=O)C1CCN(C2CC(=O)N(c3cccc(Cl)c3)C2=O)CC1 (centres undefined) | 37.2 µM |
| O=C(c1ccc2c3n(nc2c1)-c1ccccc1CO3)N1CCCCC1 | 13.4 µM |
| CSc1ccc(-c2nc3cnccn3c2Nc2ccc3c(c2)OCO3)cc1 | 59.4 µM |
| COC(=O)c1c(N2C(=O)CC(Sc3ccccc3C(=O)O)C2=O)sc2c1CCCC2 (centres undefined) | 12.2 µM |
| Oc1cc(-c2ccccc2)c2ccccc2c1 | 74.2 µM |
| Cc1ccc2cc3cc(C(=O)NCCCN4CCc5ccccc5C4)oc3nc2c1 | > 100 µM (inactive) |
| Cc1cc(C)cc(OCC(=O)N2N=C(C(F)(F)F)CC2(O)C(C)(C)C)c1 (centres undefined) | 77.8 µM |
| CCSc1nc2ccccc2n1C(=O)/C=C\c1ccc(OC)c(OC)c1 | 10.4 µM |
| Fc1ccc(CNC(=S)Nc2cccc(C(F)(F)F)c2)cc1 | 16.1 µM |
| Nc1ccccc1Sc1ccc(C(F)(F)F)cc1[N+](=O)[O-] | 28.9 µM |
| CC(C)NC(=S)N/N=C1\CCCCC1C1CCCCC1 (centres undefined) | 37.5 µM |
| CCOC(=O)c1c(-c2ccccc2)oc2cc(Br)c(O)cc12 | 20.6 µM |
| O=C(Nc1cc(Sc2ccccn2)cc([N+](=O)[O-])c1)c1cccc(Cl)c1 | 34.9 µM |
| COc1ccc(C(=O)O/N=C(\N)c2ccc(Cl)cc2)cc1 | 13.3 µM |
| Cc1ccc(CNC(=O)c2ccc(Cn3nc(C)c(Cl)c3C)o2)cc1 | 10.3 µM |
| CCC1CCCCN1c1nc(-c2ccncc2)nc2ccccc12 (centres undefined) | 34.3 µM |
| CCN1C(=O)C(CC(=O)Nc2ccc(OC)cc2)N(CCc2ccc(OC)cc2)C1=S (centres undefined) | 32.2 µM |
| Cn1c(NCc2c(O)ccc3ccccc23)nc2ccccc21 | > 100 µM (inactive) |
| COc1ccc2cc3cc(C(=O)NCCN4CCc5ccccc5C4)oc3nc2c1 | 0.69 µM |
